Counter-ions that a name gives are not always drawn.
melting point [°C]	SMILES
202	Cc1c(F)cccc1Cc1c(-c2ccccc2)c2ccccn2c1C(=O)N1CCN[C@@H](CCO)C1 (as salt: hydrochloride) [Example 5, [2-(3-Fluoro-2-methyl-benzyl)-1-phenyl-indolizin-3-yl]-[(S)-3-(2-hydroxy-ethyl)-piperazin-1]-yl-methanone]
147	Cc1c(F)cccc1Cc1c(-c2ccccc2)c2ccccn2c1C(=O)N1CCN[C@@H](CC(=O)NCC2CCOCC2)C1 (as salt: hydrochloride) [Example 6, 2-{(S)-4-[2-(3-Fluoro-2-methyl-benzyl)-1-phenyl-indolizine-3-carbonyl]-piperazin-2-yl}-N-(tetrahydropyran-4-ylmethyl)-acetamide]
205	CNC(=O)c1ccn2c(C(=O)N3CCNCC3)c(Cc3cccc(F)c3C)c(-c3ccccc3)c2c1 (as salt: hydrochloride) [Example 4, 2-(3-Fluoro-2-methyl-benzyl)-1-phenyl-3-(piperazine-1-carbonyl)-indolizine-7-carboxylic acid methylamide]
174 to 176	Cc1c(F)cccc1Cc1c(-c2ccccc2)c2ccccn2c1C(=O)N1CCN[C@@H](CC(=O)NCC(C)(C)C(N)=O)C1 (as salt: hydrochloride) [Example 7, 3-(2-{(S)-4-[2-(3-Fluoro-2-methyl-benzyl)-1-phenyl-indolizine-3-carbonyl]-piperazin-2-yl}-acetylamino)-2,2-dimethyl-propionamide]
124 to 125	COc1ccn2c(C(=O)N3CCNCC3)c(Cc3cccc(F)c3C)c(-c3ccccc3)c2c1 (as salt: hydrochloride) [Example 35, [2-(3-fluoro-2-methyl-benzyl)-7-methoxy-1-phenyl-indolizin-3-yl]-piperazin-1-yl-methanone]
151 to 153	CCNC(=O)c1cnn2c(C(=O)N3CCN[C@@H](CC(=O)NCCOC)C3)c(Cc3cccc(F)c3C)c(-c3ccccc3)c2c1 (as salt: hydrochloride) [Example 42, 6-(3-fluoro-2-methyl-benzyl)-7-{(S)-3-[(2-methoxy-ethylcarbamoyl)-methyl]-piperazine-1-carbonyl}-5-phenyl-pyrrolo[1,2-b]pyridazine-3-carboxylic acid ethylamide]
273	CNC(=O)c1ccc2c(-c3ccccc3)c(Cc3cccc(F)c3C)c(C(=O)N3CCNCC3)n2c1 (as salt: hydrochloride) [Example 13, 2-(3-Fluoro-2-methyl-benzyl)-1-phenyl-3-(piperazine-1-carbonyl)-indolizine-6-carboxylic acid methylamide]
263	Cc1c(F)cccc1Cc1c(-c2ccccc2)c2ccccn2c1C(=O)N1CCNCC1 (as salt: hydrochloride) [Example 1, [2-(3-Fluoro-2-methyl-benzyl)-1-phenyl-indolizin-3-yl]-piperazin-1-yl-methanone]
181 to 182	Cc1c(F)cccc1Cc1c(-c2ccccc2)c2ccccn2c1C(=O)N1CCN[C@@H](CC(=O)NCc2cccnc2)C1 (as salt: hydrochloride) [Example 32]
127 to 129	CNC(=O)CC[C@H]1CN(C(=O)c2c(Cc3cccc(F)c3C)c(-c3ccccc3)c3ccccn23)CCN1 (as salt: hydrochloride) [Example 26]
130 to 132	COCCN(C)C(=O)C[C@H]1CN(C(=O)c2c(Cc3cccc(F)c3C)c(-c3ccccc3)c3cc(C(=O)N(C)C)cnn23)CCN1 (as salt: hydrochloride) [Example 46]
164 to 166	Cc1c(F)cccc1Cc1c(-c2ccccc2)c2cc(C(=O)N3CCCCC3)cnn2c1C(=O)N1CCN[C@@H](CC(=O)NCCO)C1 (as salt: hydrochloride) [Example 39]
304	O=C(c1c(Cc2c(F)cccc2Cl)c(-c2ccccc2)c2ccccn12)N1CCNCC1 (as salt: hydrochloride) [Example 3, [2-(2-Chloro-6-fluoro-benzyl)-1-phenyl-indolizin-3-yl]-piperazin-1-yl-methanone]
206 to 208	Cc1c(F)cccc1Cc1c(-c2ccccc2)c2cc(O)cnn2c1C(=O)N1CCNCC1 (as salt: hydrochloride) [Example 10, [6-(3-Fluoro-2-methyl-benzyl)-3-hydroxy-5-phenyl-pyrrolo[1,2-b]pyridazin-7-yl]-piperazin-1-yl-methanone]
112 to 113	COC(=O)CCNC(=O)C[C@H]1CN(C(=O)c2c(Cc3cccc(F)c3C)c(-c3ccccc3)c3ccccn23)CCN1 (as salt: hydrochloride) [Example 30]
140 to 142	Cc1c(F)cccc1Cc1c(-c2ccccc2)c2cccnn2c1C(=O)N1CCNCC1 (as salt: hydrochloride) [Example 9, [6-(3-Fluoro-2-methyl-benzyl)-5-phenyl-pyrrolo[1,2-b]pyridazin-7-yl]-piperazin-1-yl-methanone]
166 to 168	Cc1c(F)cccc1Cc1c(-c2ccccc2)c2ccccn2c1C(=O)N1CCN[C@@H](CC(=O)NCCS(C)(=O)=O)C1 (as salt: hydrochloride) [Example 31]
208 to 210	CNC(=O)c1cnn2c(C(=O)N3CCNCC3)c(Cc3cccc(F)c3C)c(-c3ccccc3)c2c1 (as salt: hydrochloride) [Example 8, 6-(3-Fluoro-2-methyl-benzyl)-5-phenyl-7-(piperazine-1-carbonyl)-pyrrolo[1,2-b]pyridazin-3-carboxylic acid methylamide]
317 to 318	Cc1c(F)cccc1Cc1c(C2CCCCC2)c2ccccn2c1C(=O)N1CCNCC1 (as salt: hydrochloride) [Example 2, [1-Cyclohexyl-2-(3-fluoro-2-methyl-benzyl)-indolizin-3-yl]-piperazin-1-yl-methanone]
302	Cc1cccc(C)c1Cc1c(-c2ccccc2)c2ccccn2c1C(=O)N1CCN[C@H](C)C1 (as salt: hydrochloride) [Example 17, [2-(2,6-Dimethyl-benzyl)-1-phenyl-indolizin-3-yl)-((R)-3-methyl-piperazin-1-yl)-methanone]
180 to 181	Cc1c(F)cccc1Cc1c(-c2ccccc2)c2ccccn2c1C(=O)N1CCN[C@@H](CO)C1 (as salt: hydrochloride) [Example 22]

Source: patent US8415336B2, “Cyclic (aza)indolizinecarboxamides, their preparation and their use as pharmaceuticals” (Sanofi, priority 2009, dated 2013)
